The values that follow come from patent US20080287375A1, “Selective Glycosidase Inhibitors, Methods of Making Inhibitors, and Uses Thereof” (SIMON FRASER UNIVERSITY, priority 2005, published 2008).

One data set concerns COS-7 cells. Briefly: Proliferation rate and morphology of COS-7 cells incubated with inhibitors. It counts as cell-based. The note with it: 50 μM inhibitor. How it is done: COS-7 cells were cultured in DMEM medium (Invitrogen) supplemented with 5-10% FBS (Invitrogen). Aliquots of inhibitors (50 μL of a stock in 95% ethanol) were delivered onto tissue culture plates and the ethanol was evaporated. The cells were incubated at 37° C. for 40 hours at which time they reached approximately 80% confluence. […] COS-7 cells were cultured to 25% confluence in 5% FBS and an aliquot (100 μL) of inhibitor dissolved in media and filter sterilized was added to each plate to yield a final concentration of 50 μM of inhibitor. COS-7 cells (2×10 cm plates) were harvested at the appropriate times by scraping and were pooled by centrifugation (200×g, 10 min). Cells were washed once with PBS, pH 7.0 (10 mL) and pelleted (200×g, 10 min). The cells could be frozen at −80° C. at this point. Control cultures without inhibitors were treated in the same manner.

For data set [1], the system named is O-GlcNAc modified proteins in rat tissues. Put plainly: Oral availability: tissue O-GlcNAc levels in rats fed inhibitor in chow. It counts as in vivo. How it is done: To determine if the inhibitor 9c is orally available, it was incorporated into the chow (Lab Diet 5001 Rodent Diet, PMI Nutrition International, LLC). To make the rat chow, 600 g of the ground chow was mixed with 355 ml of water and 5 μL of the inhibitor dissolved in ethanol. Small pieces were then prepared with a pasta machine (Pasta Express, Creative) and dehydrated overnight at 37° C. (Snackmaster Dehydrator, American Harvest). Five sets of chow were made with the following amounts of inhibitor: 0 mg kg^−1 days^−1, 100 or 1000 mg kg^−1 days^−1 of the deprotected (polar) inhibitor, and 100 or 1000 mg kg^−1 day^−1 of the protected (non-polar) inhibitor. […] Ten five-week old healthy Sprague-Dawley rats (two per set of food) were then allowed to feed on the rat chow for three days. The animals were then sacrificed and tissues were collected, homogenized, and analyzed as described above.

[2] abbreviates: rats fed inhibitor in food for three days.

In the case of `CCCC1=N[C@@H]2[C@@H](O)[C@H](O)[C@@H](CO)O[C@@H]2S1` [Compound 9c, 1,2-dideoxy-2′-propyl-α-D-glucopyranoso-[2,1-d]-2′-thiazoline], the “proliferation rate or morphology compared to control cells” value in the data set on COS-7 cells is on record as “no abnormalities in proliferation rate or morphology”. In data set [1] (rats fed inhibitor in chow for three days), the “cellular levels of O-GlcNAc modified proteins in brain tissue, oral 100 mg/kg/day” value is “marked increases”. In addition, in data set [1] (rats fed inhibitor in chow for three days, compared with 100 mg/kg/day), the “cellular levels of O-GlcNAc modified proteins in brain tissue, oral 1000 mg/kg/day” value is on record as “even greater”. In data set [1] (setting [2]), the “O-GlcNAc modified proteins in brain, muscle, pancreas, fat and spleen, oral 100 mg kg^−1 day^−1 (FIG. 12 legend)” value was “large increases”; the “O-GlcNAc modified proteins in tissues, oral 1000 mg kg^−1 days^−1 (FIG. 12 legend)” value is “slightly greater increases”.
